Test results from PubChem BioAssay AID1259407 (Chemical Carcinogenesis Research Information System (CCRIS), 2018).
Activity calls are given as the source filed them. The rule behind the calls is not given here.

Test system: CCRIS mutagenicity, Ames/micronucleus/aberration tests
Assay: CCRIS mutagenicity studies
[1] = Test System: AMES SALMONELLA TYPHIMURIUM, Strain/Indicator: TA98, Metabolic Activation: NONE, Method: PREINCUBATION
[2] = Test System: AMES SALMONELLA TYPHIMURIUM, Strain/Indicator: TA98, Metabolic Activation: NONE, Method: STANDARD PLATE
[3] = Test System: AMES SALMONELLA TYPHIMURIUM, Strain/Indicator: TA100, Metabolic Activation: NONE, Method: PREINCUBATION
[4] = Test System: AMES SALMONELLA TYPHIMURIUM, Strain/Indicator: TA100, Metabolic Activation: NONE, Method: STANDARD PLATE
[5] = Test System: AMES SALMONELLA TYPHIMURIUM, Strain/Indicator: TA1535, Metabolic Activation: NONE, Method: PREINCUBATION
[6] = Test System: AMES SALMONELLA TYPHIMURIUM, Strain/Indicator: TA1537, Metabolic Activation: NONE, Method: PREINCUBATION

O=C1C=CC(=O)c2ccccc21
mutagenic call (End Point: In vitro chromosomal aberrations, Test System: Chinese hamster lung (CHL/IU) cells, Metabolic Activation: Rat, Liver, S9, Phenobarbital and 5,6-benzoflavone): active; positive (structural changes). toxic at 0.014 mg/ml.
mutagenic call (Test System: AMES SALMONELLA TYPHIMURIUM, Strain/Indicator: TA97, Metabolic Activation: NONE, Method: PREINCUBATION): inactive; negative
mutagenic call (Test System: AMES SALMONELLA TYPHIMURIUM, Strain/Indicator: TA97, Metabolic Activation: NONE, Method: STANDARD PLATE): inactive; negative
mutagenic call (Test System: AMES SALMONELLA TYPHIMURIUM, Strain/Indicator: TA97, Metabolic Activation: RAT, LIVER, S-9, PCB, Method: STANDARD PLATE): inactive; negative
mutagenic call (Test System: AMES SALMONELLA TYPHIMURIUM, Strain/Indicator: TA97, Metabolic Activation: RAT, LIVER, S-9, PHENOBARBITAL AND 5,6-BENZOFLAVONE, Method: PREINCUBATION): active; positive
mutagenic call [1]: inactive; negative
mutagenic call [2]: inactive; negative
mutagenic call (Test System: AMES SALMONELLA TYPHIMURIUM, Strain/Indicator: TA98, Metabolic Activation: RAT, LIVER, S-9, PCB, Method: STANDARD PLATE): inactive; negative
mutagenic call (Test System: AMES SALMONELLA TYPHIMURIUM, Strain/Indicator: TA98, Metabolic Activation: RAT, LIVER, S-9, PHENOBARBITAL AND 5,6-BENZOFLAVONE, Method: PREINCUBATION): inactive; negative
mutagenic call [3]: active; positive
mutagenic call [4]: inactive; negative
mutagenic call (Test System: AMES SALMONELLA TYPHIMURIUM, Strain/Indicator: TA100, Metabolic Activation: RAT, LIVER, S-9, PCB, Method: STANDARD PLATE): inactive; negative
mutagenic call (Test System: AMES SALMONELLA TYPHIMURIUM, Strain/Indicator: TA100, Metabolic Activation: RAT, LIVER, S-9, PHENOBARBITAL AND 5,6-BENZOFLAVONE, Method: PREINCUBATION): active; positive
mutagenic call (Test System: AMES SALMONELLA TYPHIMURIUM, Strain/Indicator: TA102, Metabolic Activation: NONE, Method: PREINCUBATION): inactive; negative
mutagenic call (Test System: AMES SALMONELLA TYPHIMURIUM, Strain/Indicator: TA102, Metabolic Activation: RAT, LIVER, S-9, PHENOBARBITAL AND 5,6-BENZOFLAVONE, Method: PREINCUBATION): active; positive
mutagenic call (Test System: AMES SALMONELLA TYPHIMURIUM, Strain/Indicator: TA104, Metabolic Activation: NONE, Method: PREINCUBATION): active; positive
mutagenic call (Test System: AMES SALMONELLA TYPHIMURIUM, Strain/Indicator: TA104, Metabolic Activation: RAT, LIVER, S-9, PHENOBARBITAL AND 5,6-BENZOFLAVONE, Method: PREINCUBATION): active; positive
mutagenic call [5]: inactive; negative
mutagenic call (Test System: AMES SALMONELLA TYPHIMURIUM, Strain/Indicator: TA1535, Metabolic Activation: RAT, LIVER, S-9, PHENOBARBITAL AND 5,6-BENZOFLAVONE, Method: PREINCUBATION): inactive; negative
mutagenic call [6]: inactive; negative
mutagenic call (Test System: AMES SALMONELLA TYPHIMURIUM, Strain/Indicator: TA1537, Metabolic Activation: RAT, LIVER, S-9, PHENOBARBITAL AND 5,6-BENZOFLAVONE, Method: PREINCUBATION): inactive; negative
mutagenic call (Test System: AMES SALMONELLA TYPHIMURIUM, Strain/Indicator: TA1538, Metabolic Activation: NONE, Method: PREINCUBATION): inactive; negative
mutagenic call (Test System: AMES SALMONELLA TYPHIMURIUM, Strain/Indicator: TA1538, Metabolic Activation: RAT, LIVER, S-9, PHENOBARBITAL AND 5,6-BENZOFLAVONE, Method: PREINCUBATION): inactive; negative
mutagenic call (Test System: AMES SALMONELLA TYPHIMURIUM, Strain/Indicator: TA2637, Metabolic Activation: NONE, Method: PREINCUBATION): active; positive
mutagenic call (Test System: AMES SALMONELLA TYPHIMURIUM, Strain/Indicator: TA2637, Metabolic Activation: RAT, LIVER, S-9, PHENOBARBITAL AND 5,6-BENZOFLAVONE, Method: PREINCUBATION): active; positive
mutagenic call (Test System: Ames Salmonella typhimurium, Strain/Indicator: TA97, Metabolic Activation: None, Method: Preincubation): inactive; negative
mutagenic call (Test System: Ames Salmonella typhimurium, Strain/Indicator: TA97, Metabolic Activation: Rat, Liver, S9, Aroclor 1254, Method: Preincubation): inactive; negative
mutagenic call (Test System: Ames Salmonella typhimurium, Strain/Indicator: TA98, Metabolic Activation: None, Method: Preincubation): inactive; negative
mutagenic call (Test System: Ames Salmonella typhimurium, Strain/Indicator: TA98, Metabolic Activation: Rat, Liver, S9, Aroclor 1254, Method: Preincubation): inactive; negative
mutagenic call (Test System: Ames Salmonella typhimurium, Strain/Indicator: TA100, Metabolic Activation: None, Method: Preincubation): inactive; negative
mutagenic call (Test System: Ames Salmonella typhimurium, Strain/Indicator: TA100, Metabolic Activation: Rat, Liver, S9, Aroclor 1254, Method: Preincubation): inactive; negative
mutagenic call (Test System: Ames Salmonella typhimurium, Strain/Indicator: TA102, Metabolic Activation: None, Method: Preincubation): inactive; negative
mutagenic call (Test System: Ames Salmonella typhimurium, Strain/Indicator: TA102, Metabolic Activation: Rat, Liver, S9, Aroclor 1254, Method: Preincubation): inactive; negative

C[C@]12CC[C@H](OC(=O)Cc3ccc(N(CCCl)CCCl)cc3)C[C@@H]1CC[C@@H]1[C@@H]2CC[C@]2(C)NC(=O)CC[C@@H]12
mutagenic call [2]: inactive; negative
mutagenic call (Test System: AMES SALMONELLA TYPHIMURIUM, Strain/Indicator: TA98, Metabolic Activation: RAT, LIVER, S-9, AROCLOR 1254, Method: STANDARD PLATE): inactive; negative
mutagenic call [4]: active; positive
mutagenic call (Test System: AMES SALMONELLA TYPHIMURIUM, Strain/Indicator: TA100, Metabolic Activation: RAT, LIVER, S-9, AROCLOR 1254, Method: STANDARD PLATE): active; positive
mutagenic call (Test System: AMES SALMONELLA TYPHIMURIUM, Strain/Indicator: TA102, Metabolic Activation: NONE, Method: STANDARD PLATE): active; positive
mutagenic call (Test System: AMES SALMONELLA TYPHIMURIUM, Strain/Indicator: TA102, Metabolic Activation: RAT, LIVER, S-9, AROCLOR 1254, Method: STANDARD PLATE): active; positive
mutagenic call (Test System: AMES SALMONELLA TYPHIMURIUM, Strain/Indicator: TA104, Metabolic Activation: NONE, Method: STANDARD PLATE): inactive; negative
mutagenic call (Test System: AMES SALMONELLA TYPHIMURIUM, Strain/Indicator: TA104, Metabolic Activation: RAT, LIVER, S-9, AROCLOR 1254, Method: STANDARD PLATE): inactive; negative
mutagenic call (Test System: AMES SALMONELLA TYPHIMURIUM, Strain/Indicator: TA1535, Metabolic Activation: NONE, Method: STANDARD PLATE): active; positive
mutagenic call (Test System: AMES SALMONELLA TYPHIMURIUM, Strain/Indicator: TA1535, Metabolic Activation: RAT, LIVER, S-9, AROCLOR 1254, Method: STANDARD PLATE): active; positive

COc1cc([C@@H]2c3cc4c(cc3[C@@H](O[C@@H]3O[C@@H]5CO[C@@H](c6cccs6)O[C@H]5[C@H](O)[C@H]3O)[C@H]3COC(=O)[C@H]23)OCO4)cc(OC)c1O
mutagenic call (Test System: MOUSE LYMPHOMA, Strain/Indicator: L5178Y (HPRT)/6-THIOGUANINE, Metabolic Activation: NONE, Method: FLUCTUATION TEST): inactive; negative
mutagenic call (Test System: MOUSE LYMPHOMA, Strain/Indicator: L5178Y (TK+/TK-), Metabolic Activation: NONE): active; positive
mutagenic call (Test System: MOUSE LYMPHOMA, Strain/Indicator: L5178Y (TK+/TK-), Metabolic Activation: NONE, Method: FLUCTUATION TEST): active; positive
mutagenic call (Test System: MOUSE LYMPHOMA, Strain/Indicator: L5178Y (TK+/TK-), Metabolic Activation: NONE, Method: SUSPENSION/PLATE): active; positive

Oc1ccc(Cc2ccccc2O)cc1
mutagenic call [1]: inactive; negative
mutagenic call (Test System: AMES SALMONELLA TYPHIMURIUM, Strain/Indicator: TA98, Metabolic Activation: RAT LIVER S-9, PHENOBARBITAL AND BETA-NAPHTHOFLAVONE, Method: PREINCUBATION): inactive; negative
mutagenic call [3]: inactive; negative
mutagenic call (Test System: AMES SALMONELLA TYPHIMURIUM, Strain/Indicator: TA100, Metabolic Activation: RAT LIVER S-9, PHENOBARBITAL AND BETA-NAPHTHOFLAVONE, Method: PREINCUBATION): inactive; negative
mutagenic call [5]: inactive; negative
mutagenic call (Test System: AMES SALMONELLA TYPHIMURIUM, Strain/Indicator: TA1535, Metabolic Activation: RAT LIVER S-9, PHENOBARBITAL AND BETA-NAPHTHOFLAVONE, Method: PREINCUBATION): inactive; negative
mutagenic call [6]: inactive; negative
mutagenic call (Test System: AMES SALMONELLA TYPHIMURIUM, Strain/Indicator: TA1537, Metabolic Activation: RAT LIVER S-9, PHENOBARBITAL AND BETA-NAPHTHOFLAVONE, Method: PREINCUBATION): inactive; negative
mutagenic call (Test System: E.COLI, Strain/Indicator: WP2UVRA/PKM101, Metabolic Activation: NONE, Method: PREINCUBATION): inactive; negative
mutagenic call (Test System: E.COLI, Strain/Indicator: WP2UVRA/PKM101, Metabolic Activation: RAT LIVER S-9, PHENOBARBITAL AND BETA-NAPHTHOFLAVONE, Method: PREINCUBATION): inactive; negative
